Columns and labels:
[1] = Plasma concentrations of d6-DM, d3-DX, d3-3-MM and Q (Example 1); settings: 2 to 3 hours after morning dose
Method: Plasma samples were separated by centrifugation and then frozen at −20° C. until assayed at the analytical unit.

[2] = PK parameters (Cmax, AUC) estimated from measured drug concentrations with a PK model (Example 1); assay type: in vivo, human
[3] = test system: negative symptoms of schizophrenia; settings: Lee et al. 2015, cited from earlier work
[4] = Visit 4 (Week 6), d6-DM/Q/d6-DM/Q, All metabolizer types
[5] = Visit 4 (Week 6), d6-DM/Q/d6-DM/Q, Extensive metabolizer subgroup
[6] = Visit 4 (Week 6), d6-DM/Q/d6-DM/Q, Intermediate metabolizer subgroup
[7] = Visit 4 (Week 6), d6-DM/Q/d6-DM/Q, Poor metabolizer subgroup
[8] = Visit 4 (Week 6), d6-DM/Q/d6-DM/Q, Ultra-Rapid metabolizer subgroup
[9] = Visit 7 (Week 12), d6-DM/Q/d6-DM/Q, All metabolizer types
[10] = Visit 7 (Week 12), d6-DM/Q/d6-DM/Q, Extensive metabolizer subgroup
[11] = Visit 7 (Week 12), d6-DM/Q/d6-DM/Q, Intermediate metabolizer subgroup
[12] = Visit 7 (Week 12), d6-DM/Q/d6-DM/Q, Ultra-Rapid metabolizer subgroup
[13] = Visit 7 (Week 12), placebo/d6-DM/Q, All metabolizer types
[14] = Visit 7 (Week 12), placebo/d6-DM/Q, Extensive metabolizer subgroup
[15] = Visit 7 (Week 12), placebo/d6-DM/Q, Intermediate metabolizer subgroup
[16] = Visit 7 (Week 12), placebo/d6-DM/Q, Poor metabolizer subgroup
[17] = subgroup of 13 patients with ALDH2*2 allele

## [2H]C([2H])([2H])N1CCC23CCCCC2C1Cc1ccc(O)cc13 (stereo not shown) [d3-DX, deuterated (d3)-dextrorphan]
[1]; d6-DM/Q/d6-DM/Q group at Visit 4 (Week 6)
  mean plasma concentration, all patients: 101.2 ng/mL
[1]; d6-DM/Q/d6-DM/Q group at Visit 7 (Week 12)
  mean plasma concentration, all patients: 111.6 ng/mL
[1]; placebo/d6-DM/Q group at Visit 7 (Week 12)
  mean plasma concentration, all patients: 124.5 ng/mL
[2]; [4]
  AUC, mean (SD): 1142.3 (378.08) h × ng/mL
  AUC, median (min, max): 1083.8 (506, 2091) h × ng/mL
  Cmax, mean (SD): 127.4 (50.25) ng/mL
  Cmax, median (min, max): 121.6 (56, 332) ng/mL
[2]; [5]
  AUC, mean (SD): 1235.3 (389.01) h × ng/mL
  AUC, median (min, max): 1119.6 (729, 2091) h × ng/mL
  Cmax, mean (SD): 144.6 (56.42) ng/mL
  Cmax, median (min, max): 134.9 (72, 332) ng/mL
[2]; [6]
  AUC, mean (SD): 1044.8 (340.96) h × ng/mL
  AUC, median (min, max): 991.6 (506, 1847) h × ng/mL
  Cmax, mean (SD): 111.5 (38.83) ng/mL
  Cmax, median (min, max): 101.2 (56, 195) ng/mL
[2]; [7]
  AUC, mean (SD): 887.2 (na) h × ng/mL
  AUC, median (min, max): 887.2 (887, 887) h × ng/mL
  Cmax, mean (SD): 87.2 (na) ng/mL
  Cmax, median (min, max): 87.2 (87, 87) ng/mL
[2]; [8]
  AUC, mean (SD): 1774.7 (na) h × ng/mL
  AUC, median (min, max): 1774.7 (1775, 1775) h × ng/mL
  Cmax, mean (SD): 193.1 (na) ng/mL
  Cmax, median (min, max): 193.1 (193, 193) ng/mL
[2]; [9]
  AUC, mean (SD): 1142.8 (378.46) h × ng/mL
  AUC, median (min, max): 1087.1 (511, 2115) h × ng/mL
  Cmax, mean (SD): 126.8 (50.32) ng/mL
  Cmax, median (min, max): 123.0 (57, 337) ng/mL
[2]; [10]
  AUC, mean (SD): 1243.6 (394.70) h × ng/mL
  AUC, median (min, max): 1123.4 (740, 2115) h × ng/mL
  Cmax, mean (SD): 144.9 (56.98) ng/mL
  Cmax, median (min, max): 133.9 (76, 337) ng/mL
[2]; [11]
  AUC, mean (SD): 1015.0 (312.22) h × ng/mL
  AUC, median (min, max): 1000.2 (511, 1833) h × ng/mL
  Cmax, mean (SD): 106.3 (33.76) ng/mL
  Cmax, median (min, max): 100.6 (57, 187) ng/mL
[2]; [12]
  AUC, mean (SD): 1783.3 (na) h × ng/mL
  AUC, median (min, max): 1783.3 (1783, 1783) h × ng/mL
  Cmax, mean (SD): 190.3 (na) ng/mL
  Cmax, median (min, max): 190.3 (190, 190) ng/mL
[2]; [13]
  AUC, mean (SD): 1181.4 (515.68) h × ng/mL
  AUC, median (min, max): 1085.8 (651, 3622) h × ng/mL
  Cmax, mean (SD): 126.6 (49.10) ng/mL
  Cmax, median (min, max): 116.4 (65, 318) ng/mL
[2]; [14]
  AUC, mean (SD): 1323.8 (623.07) h × ng/mL
  AUC, median (min, max): 1131.7 (750, 3622) h × ng/mL
  Cmax, mean (SD): 142.5 (56.08) ng/mL
  Cmax, median (min, max): 130.9 (80, 318) ng/mL
[2]; [15]
  AUC, mean (SD): 1014.1 (202.39) h × ng/mL
  AUC, median (min, max): 940.4 (745, 1367) h × ng/mL
  Cmax, mean (SD): 108.0 (24.89) ng/mL
  Cmax, median (min, max): 105.2 (76, 168) ng/mL
[2]; [16]
  AUC, mean (SD): 651.2 (na) h × ng/mL
  AUC, median (min, max): 651.2 (651, 651) h × ng/mL
  Cmax, mean (SD): 65.1 (na) ng/mL
  Cmax, median (min, max): 65.1 (65, 65) ng/mL

## COc1ccc2c(c1)[C@@]13CCCC[C@H]1[C@@H](C2)N(C)CC3 [dextromethorphan, (+)-3-methoxy-N-methylmorphinan]
[3]; add-on to risperidone
  PANSS and SANS scores, risperidone and dextromethorphan vs. risperidone and placebo (in words): No significant differences
[3]; [17]
  PANSS scores including PANSS negative symptom subscale, dextromethorphan vs. placebo (in words): No significant difference
  total SANS scores, dextromethorphan vs. placebo (in words): significant difference
